Entries after “also recorded” stand apart in the source; their conditions may differ.
Tests used:
PDE4D3 [1] = molecular target: T1, PDE4D3 (Homo sapiens, UniProt Q08499); assay: IC50 on PDE4D3; assay type: biochemical; conditions: read-out: IC50, PDE 4D3
T1 construct: targets used in the assays are full-length proteins (as opposed to simply the catalytic domain); expressed in transfected cells; host or cells: Schizosaccharomyces pombe, gene integrated at the cgs2 locus

[2] = test system: PDE4A, PDE4B, PDE4D, PDE7A; assay: Overall PDE inhibitor profile from the yeast assays (table footnotes, summary); assay type: cell-based
From the text: PDE inhibitors were identified using methods described herein, such as high throughput drug screens on genetically engineered fission yeast strains that express drug targets (e.g., PDE4A and/or PDE4B, which are anti-inflammatory targets). PDE inhibitors were identified based on their ability to stimulate growth and compounds were identified because they were effective in live cells. In addition, targets used in the assays are full-length proteins (as opposed to simply the catalytic domain) and the assay used included a built-in toxicity test, permeability test and stability test. The inhibitors identified display a very high degree of target specificity. Compounds identified include inhibitors that act on two of three PDE4 family enzymes and inhibitors that act on combinations of PDE4 and PDE7 strains. […] Limited inhibition of PDE4D by a PDE inhibitor is desirable, in view of the fact that inhibition of PDE4D causes emesis and cardiac arrhythmias. Subtype specificity was confirmed by means of cAMP assays.
Cells were pregrown in EMM medium [MP Biomedicals (Solon, OH), 3% glucose, filter-sterilized to avoid carmelization, which would introduce variability into the optical density of the medium] containing from 0 mM to 2.5 mM cAMP (or either 0.5 mM or 1.0 mM cGMP). This was to repress expression of the fbp1-ura4 reporter prior to exposure of cells to 5FOA medium. Cells were grown at 30° C. to exponential phase (approximately 10^7 cells/ml). Cells were collected by centrifugation and resuspended in 5FOA medium, and 25 μl were transferred to 384-well microtiter dishes (untreated, with flat clear bottoms) that had been pre-filled with 25 μl 5FOA medium and pre-pinned with 100 nl of compounds (stock solutions were generally 10 mM). Starting cell concentrations ranged from 0.5×10^5 to 4×10^5 cells/ml depending on the screening strain. […] Other positive control dishes contained 5 mM cAMP in the 5FOA medium for PDEs that lack appropriate control compounds. Cultures were grown for 48 hours at 30° C., sealed in an airtight container with moist paper towels to prevent evaporation. Optical densities (OD600) of cultures were measured using a microplate reader. Bioinformatic analysis of the results to determine composite Z scores was performed as previously described (1, 3).

PDE4A1 [3] = molecular target: T2, PDE4A1 (Mus musculus, UniProt O89084); assay: cAMP assay in yeast strain expressing PDE4A1; assay type: cell-based, murine
T2 construct: targets used in the assays are full-length proteins (as opposed to simply the catalytic domain); expressed in transfected cells; host or cells: Schizosaccharomyces pombe, gene integrated at the cgs2 locus
T2 sequence (O89084 1-610 isoform O89084-2): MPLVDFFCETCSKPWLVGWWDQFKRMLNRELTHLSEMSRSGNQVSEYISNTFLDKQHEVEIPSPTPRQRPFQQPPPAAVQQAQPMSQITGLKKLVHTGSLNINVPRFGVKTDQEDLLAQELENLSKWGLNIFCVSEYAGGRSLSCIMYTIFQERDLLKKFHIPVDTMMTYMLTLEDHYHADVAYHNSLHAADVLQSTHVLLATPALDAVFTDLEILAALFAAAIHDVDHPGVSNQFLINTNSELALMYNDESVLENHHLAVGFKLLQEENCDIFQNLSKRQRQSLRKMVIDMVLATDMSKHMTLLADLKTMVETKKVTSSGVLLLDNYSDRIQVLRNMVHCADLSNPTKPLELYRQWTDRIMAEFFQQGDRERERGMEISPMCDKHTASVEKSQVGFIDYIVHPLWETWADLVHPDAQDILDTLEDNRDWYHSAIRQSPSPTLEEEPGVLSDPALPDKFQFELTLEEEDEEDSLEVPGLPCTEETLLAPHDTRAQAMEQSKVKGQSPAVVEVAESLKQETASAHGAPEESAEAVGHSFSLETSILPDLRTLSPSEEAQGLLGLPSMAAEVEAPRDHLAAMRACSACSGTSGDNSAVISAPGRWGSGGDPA

PDE4D3 [4] = molecular target: T1, PDE4D3; assay: cAMP assay in yeast strain expressing PDE4D3; assay type: cell-based
PDE4A5 = molecular target: T3, PDE4A5 (Rattus norvegicus, UniProt P54748); assay: cAMP assay in yeast strain expressing PDE4A5; assay type: cell-based
T3 construct: targets used in the assays are full-length proteins (as opposed to simply the catalytic domain); expressed in transfected cells; host or cells: Schizosaccharomyces pombe, gene integrated at the cgs2 locus
T3 sequence (P54748 1-844): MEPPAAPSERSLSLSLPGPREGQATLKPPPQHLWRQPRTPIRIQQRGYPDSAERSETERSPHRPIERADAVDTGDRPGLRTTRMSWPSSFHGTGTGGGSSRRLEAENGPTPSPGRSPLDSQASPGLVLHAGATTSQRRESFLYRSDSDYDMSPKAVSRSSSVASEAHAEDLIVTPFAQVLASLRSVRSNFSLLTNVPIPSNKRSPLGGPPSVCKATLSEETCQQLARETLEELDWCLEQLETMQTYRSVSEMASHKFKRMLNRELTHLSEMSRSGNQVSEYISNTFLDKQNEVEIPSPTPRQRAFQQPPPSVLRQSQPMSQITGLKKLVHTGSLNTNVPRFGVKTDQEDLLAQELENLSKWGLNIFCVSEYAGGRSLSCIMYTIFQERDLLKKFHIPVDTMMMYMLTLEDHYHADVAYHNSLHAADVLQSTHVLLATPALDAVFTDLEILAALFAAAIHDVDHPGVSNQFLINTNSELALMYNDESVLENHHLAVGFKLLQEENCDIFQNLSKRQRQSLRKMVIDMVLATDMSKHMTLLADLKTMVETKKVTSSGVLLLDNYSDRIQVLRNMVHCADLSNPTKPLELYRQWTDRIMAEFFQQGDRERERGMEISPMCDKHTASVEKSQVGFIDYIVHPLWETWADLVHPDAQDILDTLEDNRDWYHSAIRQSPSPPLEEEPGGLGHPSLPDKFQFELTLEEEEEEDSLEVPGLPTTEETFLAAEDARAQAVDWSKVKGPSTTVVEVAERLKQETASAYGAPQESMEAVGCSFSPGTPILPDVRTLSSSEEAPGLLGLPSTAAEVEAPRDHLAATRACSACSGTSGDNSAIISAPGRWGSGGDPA

PDE4A1 [5] = molecular target: T2, PDE4A1; assay: IC50 on PDE4A1; assay type: biochemical, murine; conditions: read-out: IC50, PDE 4A1
PDE4B3 = molecular target: T4, PDE4B3 (Mus musculus, UniProt Q8VBU5); assay: cAMP assay in yeast strain expressing PDE4B3; assay type: cell-based, murine
T4 construct: targets used in the assays are full-length proteins (as opposed to simply the catalytic domain); expressed in transfected cells; host or cells: Schizosaccharomyces pombe, gene integrated at the cgs2 locus
T4 sequence (Q8VBU5 1-721): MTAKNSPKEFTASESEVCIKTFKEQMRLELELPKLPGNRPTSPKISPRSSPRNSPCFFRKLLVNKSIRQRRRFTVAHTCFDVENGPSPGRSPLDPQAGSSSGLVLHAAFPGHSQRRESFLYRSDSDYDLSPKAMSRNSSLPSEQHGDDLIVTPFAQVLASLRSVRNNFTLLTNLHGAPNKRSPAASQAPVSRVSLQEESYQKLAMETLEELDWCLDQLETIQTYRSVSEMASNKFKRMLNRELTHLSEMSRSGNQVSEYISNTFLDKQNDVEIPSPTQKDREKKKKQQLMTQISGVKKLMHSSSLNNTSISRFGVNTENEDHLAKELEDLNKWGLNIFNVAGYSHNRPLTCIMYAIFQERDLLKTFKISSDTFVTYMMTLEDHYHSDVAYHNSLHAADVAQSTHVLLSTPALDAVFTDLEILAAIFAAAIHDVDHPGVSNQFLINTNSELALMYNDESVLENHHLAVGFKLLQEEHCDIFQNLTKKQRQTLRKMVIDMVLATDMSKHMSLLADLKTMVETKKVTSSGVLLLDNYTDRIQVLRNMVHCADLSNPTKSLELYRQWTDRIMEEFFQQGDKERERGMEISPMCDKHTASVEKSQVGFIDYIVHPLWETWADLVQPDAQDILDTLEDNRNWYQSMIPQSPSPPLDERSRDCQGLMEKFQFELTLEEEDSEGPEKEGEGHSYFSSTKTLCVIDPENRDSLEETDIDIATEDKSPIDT

PDE4D2 = molecular target: T5, PDE4D2 (Homo sapiens, UniProt Q08499); assay: cAMP assay in yeast strain expressing PDE4D2; assay type: cell-based
T5 construct: targets used in the assays are full-length proteins (as opposed to simply the catalytic domain); expressed in transfected cells; host or cells: Schizosaccharomyces pombe
T5 sequence (Q08499 303-809): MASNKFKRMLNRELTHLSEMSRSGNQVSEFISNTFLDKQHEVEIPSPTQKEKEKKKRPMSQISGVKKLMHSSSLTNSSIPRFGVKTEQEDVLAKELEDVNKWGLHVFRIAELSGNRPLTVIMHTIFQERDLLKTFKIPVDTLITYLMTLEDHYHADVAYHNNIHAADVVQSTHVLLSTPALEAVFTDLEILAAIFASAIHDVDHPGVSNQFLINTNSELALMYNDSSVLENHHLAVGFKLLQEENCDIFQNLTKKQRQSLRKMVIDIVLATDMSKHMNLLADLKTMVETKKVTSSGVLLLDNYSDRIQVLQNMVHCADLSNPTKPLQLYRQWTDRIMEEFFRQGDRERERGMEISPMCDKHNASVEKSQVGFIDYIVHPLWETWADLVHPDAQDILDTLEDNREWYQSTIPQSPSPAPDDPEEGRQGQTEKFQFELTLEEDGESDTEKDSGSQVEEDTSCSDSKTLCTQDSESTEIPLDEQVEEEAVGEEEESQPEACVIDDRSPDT

T1 sequence (Q08499 1-673 isoform Q08499-2): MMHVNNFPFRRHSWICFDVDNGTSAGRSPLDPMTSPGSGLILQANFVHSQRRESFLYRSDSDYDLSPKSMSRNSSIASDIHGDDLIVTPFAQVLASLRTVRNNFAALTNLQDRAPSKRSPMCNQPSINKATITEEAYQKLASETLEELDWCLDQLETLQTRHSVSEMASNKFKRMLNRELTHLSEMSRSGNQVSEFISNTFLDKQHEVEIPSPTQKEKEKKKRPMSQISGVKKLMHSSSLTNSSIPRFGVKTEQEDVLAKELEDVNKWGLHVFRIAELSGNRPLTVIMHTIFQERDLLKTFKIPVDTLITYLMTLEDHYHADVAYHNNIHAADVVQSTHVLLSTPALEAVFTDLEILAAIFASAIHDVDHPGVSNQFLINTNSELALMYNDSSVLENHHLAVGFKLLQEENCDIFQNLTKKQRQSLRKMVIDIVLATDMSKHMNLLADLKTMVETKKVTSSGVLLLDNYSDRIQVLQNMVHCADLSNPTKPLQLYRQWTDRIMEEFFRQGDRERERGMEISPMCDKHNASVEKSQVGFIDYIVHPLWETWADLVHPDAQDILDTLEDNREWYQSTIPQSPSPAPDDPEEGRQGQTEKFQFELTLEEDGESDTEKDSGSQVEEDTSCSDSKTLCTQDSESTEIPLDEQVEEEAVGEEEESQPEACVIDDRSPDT

`Cc1cc(C)nc(SCCS(=O)(=O)c2ccc(C(C)(C)C)cc2)n1` [Compound 26] was tested, and the IC50 (PDE4D3 [1]) was 500 nM, the “PDE inhibitor profile in words (table footnote / summary)” value [2] was “effective PDE4A/4B inhibitor that exhibits limited/essentially no inhibition of PDE4D; also recorded: effective PDE4A/4B inhibitor; also recorded: little or no inhibition of PDE4D; also recorded: (1) Strong PDE4A, 4B inhibitor” and the “cAMP Response (% rolipram), PDE 4A1” value (PDE4A1 [3]) was 96.00 % rolipram. For the same molecule, the “cAMP Response (% rolipram), PDE 4D3” value (PDE4D3 [4]) was 14.00 % rolipram, the “cAMP Response (% rolipram), PDE 4A5” value (PDE4A5) was 57.30 % rolipram and the IC50 (PDE4A1 [5]) was 500 nM. The “cAMP Response (% rolipram), PDE 4B3” value (PDE4B3) was 92.00 % rolipram and the “cAMP Response (% rolipram), PDE 4D2” value (PDE4D2) was “ND ND ND 17.00 ND % rolipram”.

From patent US20100179158A1, “INHIBITORS OF CYCLIC AMP PHOSPHODIESTERASES” (priority 2007, published 2010)
